In patent US10407445B2, “Hepatitis C virus inhibitors” (ENANTA PHARMACEUTICALS, INC., priority 2013, dated 2019):

Experiments:
Assay type in all cases: cell-based
[1] = tested on: HCV genotype 1a replicon, NS5A Q30H; assay: Transient replication assay, GT1a NS5A Q30H; settings: Hepatitis C virus
[2] = tested on: HCV genotype 1a replicon, NS5A K24E; assay: Transient replication assay, GT1a NS5A K24E; settings: Hepatitis C virus
GT2a-2b-MD2b replicon = assay: Stable replicon assay, comparison to daclatasvir, GT2a-2b-MD2b; settings: Hepatitis C virus
Excerpt: (§1) The plasmid pSG-hRlucNeo-JFH1 was generated from pSG-Neo-JFH1 (Kato et al. 2003, Gastroentrology 125:1808-1817). A fragment containing the JFH-1 5′ NTR-hRluc-Neo gene and two unique restriction sites (AgeI and PmeI) was synthesized (Integrated DNA Technologies, Coralville, Iowa). The resulting plasmid was digested with AgeI and PmeI and the excised fragment (5′NTR-hRluc-Neo) was ligated into pSG-Neo-JFH1 digested with the same enzymes to generate pSG-hRlucNeo-JFH1. To allow expression of heterologous NS5A sequences, an NS5A shuttle vector was generated from pSG-Neo-JFH1, in which the entire coding sequence of NS5A plus the first eight codons of NS5B were replaced with an AfeI restriction site. This was done by Infusion cloning (Clontech, Mountain View, Calif.) from two PCR products that were generated using pSG-Neo-JFH1 as a template and the following primer pairs: […]
(§2) Stable HCV replicon cell lines were grown in complete media (Dulbecco's modified Eagle medium [DMEM], 2 mM L-glutamine, 0.1 mM essential amino acids, 1 mM sodium pyruvate, 10% fetal bovine serum) with the addition 500 μg/ml […] (G418). […] For stable and transient replicon assays, luciferase activity of compound-treated cells was measured relative to DMSO-treated cells after 72 h incubation using RENILLA-GLO™ Luciferase Assay (Promega). […]

[3] = tested on: HCV genotype 1a replicon, NS5A K24E Q30R; assay: Transient replication assay, GT1a NS5A K24E Q30R; settings: Hepatitis C virus
GT2a-2b-J8 replicon = assay: Stable replicon assay, comparison to daclatasvir, GT2a-2b-J8; settings: Hepatitis C virus
Excerpt: as §1, §2

[4] = tested on: HCV genotype 1a replicon, NS5A M28V Y93H; assay: Transient replication assay, GT1a NS5A M28V Y93H; settings: Hepatitis C virus
[5] = tested on: HCV genotype 1a replicon, NS5A Q30R Y93H; assay: Transient replication assay, GT1a NS5A Q30R Y93H; settings: Hepatitis C virus
[6] = tested on: HCV genotype 1a replicon, NS5A Q30R; assay: Transient replication assay, GT1a NS5A Q30R; settings: Hepatitis C virus
[7] = tested on: HCV genotype 1a replicon, NS5A Y93C; assay: Transient replication assay, GT1a NS5A Y93C; settings: Hepatitis C virus
[8] = tested on: HCV genotype 1a replicon, NS5A H58D; assay: Transient replication assay, GT1a NS5A H58D; settings: Hepatitis C virus
[9] = tested on: HCV genotype 1a replicon, NS5A K24N Q30R; assay: Transient replication assay, GT1a NS5A K24N Q30R; settings: Hepatitis C virus
GT2a-2a-J6 replicon = assay: Stable replicon assay, comparison to daclatasvir, GT2a-2a-J6; settings: Hepatitis C virus
Excerpt: as §1, §2

[10] = tested on: wild type (wt) HCV genotype 1a replicon; assay: Transient replication assay, HCV genotype 1a wild type (wt); settings: Hepatitis C virus; HCV genotype 1a replicon wt
GT2a-3a-S52 replicon = assay: Stable replicon assay, comparison to daclatasvir, GT2a-3a-S52; settings: Hepatitis C virus
Excerpt: as §1, §2

[11] = tested on: HCV genotype 1a replicon, NS5A Q30E; assay: Transient replication assay, GT1a NS5A Q30E; settings: Hepatitis C virus

| Structure (SMILES) | EC50 [1] [nM] | EC50 [2] [nM] | EC50 (GT2a-2b-MD2b replicon) [nM] | EC50 [3] [nM] | EC50 (GT2a-2b-J8 replicon) [nM] | EC50 [4] [nM] | EC50 [5] [nM] | EC50 [6] [nM] | EC50 [7] [nM] | EC50 [8] [nM] | EC50 [9] [nM] | EC50 (GT2a-2a-J6 replicon) [nM] | EC50 [10] [nM] | EC50 (GT2a-3a-S52 replicon) [nM] | EC50 [11] [nM] |
| --- | --- | --- | --- | --- | --- | --- | --- | --- | --- | --- | --- | --- | --- | --- | --- |
| COC(=O)N[C@H](C(=O)N1CCC[C@H]1c1nc(-c2ccc(-c3ccc(-c4c[nH]c([C@@H]5CCCN5C(=O)[C@@H](NC(=O)OC)C(C)C)n4)cc3)cc2)c[nH]1)C(C)C [Daclatasvir, reference compound] | 0.8 | 0.0022 | 33 | 3.5 | 20 | 17.5 | 243 | 3.4 | 3.2 | 1.2 | 8 | 5.8 | 0.0083 | 0.39 | 81.5 |
| COC(=O)N[C@H](C(=O)N1C[C@]2(CCCOC2)C[C@H]1c1ncc(-c2ccc(-c3ccc4c(ccc5nc([C@@H]6C[C@@H]7CCC[C@@H]7N6C(=O)[C@@H](NC(=O)OC)C(C)C)[nH]c54)c3)cc2)[nH]1)C(C)C [Compound 16] | 0.006 | 0.0013 | 21 | 1.8 | 9.9 | 15 | 38 | 0.012 | 0.22 | 0.01 | 1.2 | 0.49 | 0.0014 | 0.54 | 0.74 |
